Biological target: Mitogen-activated protein kinase 1 (Homo sapiens, UniProt P28482)
Sequence (P28482 whole entry): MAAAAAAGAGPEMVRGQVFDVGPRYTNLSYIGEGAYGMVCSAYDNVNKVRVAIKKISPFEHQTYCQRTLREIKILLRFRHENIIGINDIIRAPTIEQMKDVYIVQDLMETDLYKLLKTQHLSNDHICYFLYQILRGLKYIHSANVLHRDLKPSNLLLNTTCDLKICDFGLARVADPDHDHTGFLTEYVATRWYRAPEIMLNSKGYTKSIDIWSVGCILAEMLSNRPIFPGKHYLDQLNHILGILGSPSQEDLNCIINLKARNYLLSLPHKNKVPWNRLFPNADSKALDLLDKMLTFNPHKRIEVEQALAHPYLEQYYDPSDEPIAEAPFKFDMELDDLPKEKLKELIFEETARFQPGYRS
Description: Inhibition of human activated ERK2 assessed as reduction in phosphorylation activity preincubated for 15 mins followed by addition of IMAP peptide as substrate and ATP measured after 60 mins by fluorescence polarization method

IC50 | Structure (SMILES)
24.3 nM | CCn1ncc2cc3nc(c21)CCCO[C@H](O)[C@H](c1ccccc1)NC(=O)N3
118 nM | CCn1ncc2cc3nc(c21)CCCO[C@@H](O)[C@H](c1ccccc1)NC(=O)N3

Source: ChEMBL document CHEMBL3865848, “Macrocyclic Inhibitors of ERK2 Kinase” (ACS Med Chem Lett, 2016)
